This is an account of results in patent US9029337B2, “Modulation of factor 7 expression” (Isis Pharmaceuticals, Inc., priority 2007, dated 2015).

Strand notation (5' to 3'): a small letter for the sugar, then the base; units joined by * are phosphorothioate-linked, units joined directly phosphodiester-linked; [ ] holds rarer units or linkages, { } end groups; capitals alone tell only the bases. e = 2'-O-(2-methoxyethyl) (MOE); [5mC] = 5-methylcytosine; d = 2'-deoxy (DNA)

What is called % Inhibition is the change of the read-out against control, counted positive when it falls. The low end stands for a weak effect, the high end for a strong effect.

The first series relates to human Factor 7 mRNA. Briefly: Antisense inhibition of human Factor 7 mRNA in HepB3 cells, 50 nM antisense oligonucleotide, lipofectin. The settings on record: Table 1, 50 nM, lipofectin, approximately 24 hours, relative to untreated control cells. It is filed as cell-based. In a few lines:
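Percent inhibition of Factor 7 mRNA, relative to untreated control, comes from real-time RT-PCR with RIBOGREEN normalization, using primer probe set RTS 2927 in some runs. RNA was taken roughly 24 h after lipofectin delivery of 50 nM oligonucleotide into HepB3 cells.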
“407652 (antisense eT*eG*eG*eG*eA*dG*d[5mC]*dT*dA*d[5mC]*dA*dG*d[5mC]*d[5mC]*dT*e[5mC]*eA*eA*eA*e[5mC]) [compound 407652]”: the “% Inhibition” value is 30%.
As to “407950 (antisense eA*eG*e[5mC]*eT*eT*d[5mC]*d[5mC]*dA*dT*dG*dT*dG*dA*dG*dG*eG*eT*eT*e[5mC]*eA) [compound 407950]”, the “% Inhibition” value amounted to 58%.
On the same count and under the same terms, with “407668 (antisense eG*eA*eA*eG*e[5mC]*d[5mC]*dT*dT*dA*d[5mC]*d[5mC]*dT*dG*d[5mC]*d[5mC]*eA*eT*eG*eG*eA) [compound 407668]” the figure was 54%; with “407605 (antisense eT*eT*eG*eA*eG*dG*d[5mC]*dA*d[5mC]*dA*d[5mC]*dT*dG*dG*dT*e[5mC]*e[5mC]*e[5mC]*e[5mC]*eA) [compound 407605]”, 58%.
On the same count and under the same terms, with “407620 (antisense eA*eG*eG*eA*e[5mC]*d[5mC]*dT*dG*d[5mC]*d[5mC]*dA*dT*dG*dG*dA*e[5mC]*eA*e[5mC]*eT*e[5mC]) [compound 407620]” the figure was 79%; with “407903 (antisense e[5mC]*e[5mC]*eG*e[5mC]*eG*dG*dA*dG*dA*d[5mC]*d[5mC]*dA*d[5mC]*d[5mC]*d[5mC]*eA*eG*eA*eT*eG) [compound 407903]”, 98%; with “407917 (antisense eA*e[5mC]*eA*e[5mC]*e[5mC]*d[5mC]*d[5mC]*dA*dA*dA*dG*dT*dG*dG*d[5mC]*e[5mC]*e[5mC]*eA*e[5mC]*eG) [compound 407917]”, 70%.
As to “407919 (antisense eT*e[5mC]*eG*eA*eT*dG*dT*dA*d[5mC]*dT*dG*dG*dG*dA*dG*eA*e[5mC]*e[5mC]*e[5mC]*eT) [compound 407919]”, the “% Inhibition” value is reported as 84%.
The same measure, in the same setting: with “407654 (antisense e[5mC]*e[5mC]*eA*e[5mC]*eT*dG*d[5mC]*dA*dG*d[5mC]*d[5mC]*dA*dG*dG*dG*e[5mC]*e[5mC]*eT*eG*eG) [compound 407654]” the figure was 34%.

Still in this series, the particulars now being: Table 6, 50 nM, lipofectin, approximately 24 hours.
For the substance “422186 (antisense eG*eG*eA*dA*dG*dA*dA*dG*dG*dG*dA*d[5mC]*dG*dG*dA*dA*dG*eG*eT*eG) [compound 422186]”, the “% Inhibition” value is given as 14%.
The same measure, in the same setting: with “422121 (antisense eG*e[5mC]*eG*e[5mC]*eG*dG*dA*dA*dG*dA*dA*dG*dG*dG*dA*e[5mC]*eG*eG*eA*eA) [compound 422121]” the figure was 43%.
On to “422270 (antisense eT*eG*dA*dG*d[5mC]*dG*d[5mC]*dG*dG*dA*dA*dG*dA*dA*dG*eG*eG*eA*e[5mC]*eG) [compound 422270]”, for which the “% Inhibition” value was 15%.

Staying with this series, now noted: Table 13 (microwalk), 50 nM, lipofectin, approximately 24 hours.
Turning to “416482 (antisense e[5mC]*eA*eT*eG*eG*dT*dG*dA*dT*dG*d[5mC]*dT*dT*d[5mC]*dT*eG*eA*eA*eT*eT) [compound 416482]”, the “% Inhibition” value is 64%.

Still in this series, the particulars now being: gapmers targeted to nucleobases 4868 to 4899 of SEQ ID NO: 1, Table 8.
Consider “422147 (antisense eG*eA*eG*e[5mC]*e[5mC]*d[5mC]*dG*dA*dG*dT*dT*d[5mC]*dT*dG*d[5mC]*eA*eG*eG*eA*eG) [compound 422147]”, for which the “% Inhibition of human Factor 7 mRNA levels” value is 64%.
On the same count and under the same terms, then “422293 (antisense eA*eG*dT*dT*d[5mC]*dT*dG*d[5mC]*dA*dG*dG*dA*dG*d[5mC]*dG*eG*e[5mC]*e[5mC]*eT*eA) [compound 422293]”, with 69%; and “422145 (antisense eG*e[5mC]*e[5mC]*e[5mC]*eG*dA*dG*dT*dT*d[5mC]*dT*dG*d[5mC]*dA*dG*eG*eA*eG*e[5mC]*eG) [compound 422145]”, with 57%.
On the same count and under the same terms, then “422146 (antisense eA*eG*e[5mC]*e[5mC]*e[5mC]*dG*dA*dG*dT*dT*d[5mC]*dT*dG*d[5mC]*dA*eG*eG*eA*eG*e[5mC]) [compound 422146]”, with 58%.
Same read-out and setting: then “422223 (antisense eG*eA*eG*d[5mC]*d[5mC]*d[5mC]*dG*dA*dG*dT*dT*d[5mC]*dT*dG*d[5mC]*dA*dG*eG*eA*eG) [compound 422223]”, with 48%.

The same series, now with this note: lipofectin, 50 nM antisense oligonucleotide, approximately 24 hours, Factor 7 mRNA by real-time RT-PCR (RTS 2927), relative to untreated control.
As to “416442 (antisense eA*eG*e[5mC]*eA*eG*dA*dT*dA*dT*dA*dG*dG*dA*d[5mC]*dT*eG*eG*eA*eG*e[5mC]) [compound 416442]”, the “% Inhibition” value is 57%.
Still for that read-out and setting: then “416533 (antisense eG*e[5mC]*eA*eT*eT*d[5mC]*dT*dG*dG*dA*d[5mC]*d[5mC]*d[5mC]*dA*dG*eA*eT*eG*eA*e[5mC]) [compound 416533]”, with 41%.
Same read-out and setting: then “416441 (antisense eA*eG*eA*eT*eA*dT*dA*dG*dG*dA*d[5mC]*dT*dG*dG*dA*eG*e[5mC]*eT*eG*eG) [compound 416441]”, with 32%.
Regarding “416462 (antisense eG*eG*e[5mC]*eA*eG*dT*d[5mC]*d[5mC]*dT*dG*dG*dG*dT*d[5mC]*dA*eT*e[5mC]*eA*eG*e[5mC]) [compound 416462]”, the “% Inhibition” value is 60%.
On the same count and under the same terms, with “416480 (antisense eA*eA*eG*eT*eG*dA*dG*dA*dG*d[5mC]*dT*dA*dA*dA*d[5mC]*eA*eA*e[5mC]*e[5mC]*eG) [compound 416480]” the figure was 25%.
Take “416534 (antisense eA*eT*eG*e[5mC]*eA*d[5mC]*dA*d[5mC]*d[5mC]*dA*dG*dG*dG*d[5mC]*dT*eG*e[5mC]*eT*eG*eG) [compound 416534]”: the “% Inhibition” value turned out to be 32%.
On the same count and under the same terms, then “416499 (antisense eG*eA*eG*eA*eG*d[5mC]*dT*dG*d[5mC]*dA*d[5mC]*d[5mC]*dT*dG*dG*e[5mC]*e[5mC]*eG*eG*e[5mC]) [compound 416499]”, with 7%; and “416471 (antisense eT*eG*eA*eG*e[5mC]*dT*dT*dT*dT*dG*d[5mC]*dA*dG*d[5mC]*d[5mC]*eA*e[5mC]*eT*e[5mC]*eG) [compound 416471]”, with 62%; and “416445 (antisense eT*eA*e[5mC]*eT*eG*d[5mC]*dT*d[5mC]*dA*d[5mC]*dA*dG*d[5mC]*d[5mC]*dG*e[5mC]*e[5mC]*eG*eT*eT) [compound 416445]”, with 57%.
Turning to “416542 (antisense e[5mC]*eA*eG*eG*eG*dT*dG*d[5mC]*d[5mC]*d[5mC]*dA*dT*d[5mC]*d[5mC]*dT*eA*eG*eT*e[5mC]*eA) [compound 416542]”, the “% Inhibition” value turned out to be 56%.
On the same count and under the same terms, then “416425 (antisense eA*eA*eG*e[5mC]*eA*dG*dA*dA*dG*dG*d[5mC]*dA*dG*dA*dG*eG*eA*eG*e[5mC]*e[5mC]) [compound 416425]”, with 13%; and “416567 (antisense eT*eG*eG*eT*eG*dG*d[5mC]*dA*d[5mC]*d[5mC]*dA*dG*dA*dT*dG*eT*e[5mC]*eT*eG*eA) [compound 416567]”, with 2%.
Same read-out and setting: then “416525 (antisense eT*eA*eT*eG*eA*dG*dT*d[5mC]*d[5mC]*dT*dT*d[5mC]*dT*dA*dG*eT*eG*eA*eA*eT) [compound 416525]”, with 5%.
Still for that read-out and setting: then “416526 (antisense eT*eG*eT*e[5mC]*e[5mC]*dA*d[5mC]*dA*dT*dG*dA*d[5mC]*d[5mC]*d[5mC]*d[5mC]*eA*e[5mC]*eA*eG*eG) [compound 416526]”, with 19%; and “416482 (antisense e[5mC]*eA*eT*eG*eG*dT*dG*dA*dT*dG*d[5mC]*dT*dT*d[5mC]*dT*eG*eA*eA*eT*eT) [compound 416482]”, with 64%.
As for “416478 (antisense eG*eT*e[5mC]*eT*e[5mC]*d[5mC]*dA*dG*d[5mC]*dA*dA*dT*dG*dA*dA*eG*eG*e[5mC]*eA*eG) [compound 416478]”, the “% Inhibition” value is listed as 44%.

The series is the same for the next values; noted with them: oligonucleotides targeted to nucleobases 11830 to 11869 of SEQ ID NO: 1 (Table 9).
“422090 (antisense eG*eG*eT*e[5mC]*eA*dG*dG*dG*d[5mC]*dT*dG*dG*dT*dT*dT*eT*eG*eG*eA*eG) [compound 422090]”: the “% Inhibition (human Factor 7 mRNA levels)” value was determined as 42%.
As to “422155 (antisense eG*eT*e[5mC]*dA*dG*dG*dG*d[5mC]*dT*dG*dG*dT*dT*dT*dT*dG*dG*eA*eG*eG) [compound 422155]”, the “% Inhibition (human Factor 7 mRNA levels)” value is recorded as 34%.
Regarding “422093 (antisense eA*eA*eT*eG*eG*dT*d[5mC]*dA*dG*dG*dG*d[5mC]*dT*dG*dG*eT*eT*eT*eT*eG) [compound 422093]”, the “% Inhibition (human Factor 7 mRNA levels)” value came out at 42%.
Still for that read-out and setting: with “422095 (antisense eA*e[5mC]*eA*eA*eT*dG*dG*dT*d[5mC]*dA*dG*dG*dG*d[5mC]*dT*eG*eG*eT*eT*eT) [compound 422095]” the figure was 60%.

Still in this series, the particulars now being: oligonucleotides targeted to nucleobases 13760 to 13789 of SEQ ID NO: 1 (Table 10).
As to “422181 (antisense eG*e[5mC]*e[5mC]*dA*d[5mC]*d[5mC]*d[5mC]*dG*d[5mC]*d[5mC]*dG*dG*d[5mC]*dT*d[5mC]*dT*dG*e[5mC]*eT*e[5mC]) [compound 422181]”, the “% Inhibition (human Factor 7 mRNA levels)” value is listed as 66%.
On the same count and under the same terms, then “422179 (antisense e[5mC]*eA*e[5mC]*d[5mC]*d[5mC]*dG*d[5mC]*d[5mC]*dG*dG*d[5mC]*dT*d[5mC]*dT*dG*d[5mC]*dT*e[5mC]*eA*eT) [compound 422179]”, with 43%.

Staying with this series, now noted: oligonucleotides targeted to nucleobases 14707 to 14732 of SEQ ID NO: 1 (Table 11).
Consider “422281 (antisense eG*e[5mC]*dA*dG*d[5mC]*d[5mC]*dT*dG*dA*dG*dG*d[5mC]*d[5mC]*dA*dG*e[5mC]*eA*eG*eA*eT) [compound 422281]”, for which the “% Inhibition (human Factor 7 mRNA levels)” value is 57%.

The same series, now with this note: oligonucleotides targeted to nucleobases 15098 to 15122 of SEQ ID NO: 1 (Table 12).
For the substance “422134 (antisense eG*e[5mC]*eA*e[5mC]*eA*d[5mC]*dA*dT*dG*dG*dA*dG*dT*d[5mC]*dA*eG*e[5mC]*eA*eT*e[5mC]) [compound 422134]”, the “% Inhibition (human Factor 7 mRNA levels)” value turned out to be 67%.
With “422210 (antisense e[5mC]*eA*eG*d[5mC]*dA*d[5mC]*dA*d[5mC]*dA*dT*dG*dG*dA*dG*dT*d[5mC]*dA*eG*e[5mC]*eA) [compound 422210]”, the “% Inhibition (human Factor 7 mRNA levels)” value is listed as 25%.
